Data taken from paper PMC5218480 (PLoS ONE, 2017).

Tested on: MV-4-11 cells
Assay: Gene expression microarray analysis (Affymetrix PrimeView) and GSEA
Type: cell-based, human
Set-up: RFU PODN (11730768_x_at) / Fold change /veh PODN (11730768_x_at) / RFU LINC00158 (11744669_a_at) / Fold change /veh LINC00158 (11744669_a_at) / RFU DUSP10 (11751237_a_at) / Fold change /veh DUSP10 (11751237_a_at) / RFU ID3 (11757404_x_at) / Fold change /veh ID3 (11757404_x_at) / RFU PLEKHG5 (11737974_s_at) / Fold change /veh PLEKHG5 (11737974_s_at) / RFU LRRC4B (11730491_at) / Fold change /veh LRRC4B (11730491_at) / RFU GIMAP4 (11747438_a_at) / Fold change /veh GIMAP4 (11747438_a_at) / RFU KRT8 (11758183_x_at) / Fold change /veh KRT8 (11758183_x_at) / RFU CNN1 (11734310_a_at) / Fold change /veh CNN1 (11734310_a_at) / RFU VPS37D (11726825_at) / Fold change /veh VPS37D (11726825_at) / RFU C10orf10 (11716522_x_at) / Fold change /veh C10orf10 (11716522_x_at) / RFU KIR2DL2 /// KIR2DL4 /// KIR2DL5A /// KIR2DL5B /// KIR2DS1 /// KIR2DS2 /// KIR2DS3 /// KIR2DS4 /// KIR3DL3 /// KIR3DL3 /// KIR3DS1 (11738374_at) / Fold change /veh KIR2DL2 /// KIR2DL4 /// KIR2DL5A /// KIR2DL5B /// KIR2DS1 /// KIR2DS2 /// KIR2DS3 /// KIR2DS4 /// KIR3DL3 /// KIR3DL3 /// KIR3DS1 (11738374_at) / RFU C1QL1 (11718748_at) / Fold change /veh C1QL1 (11718748_at) / RFU TMPRSS4 (11747572_a_at) / Fold change /veh TMPRSS4 (11747572_a_at) / RFU HAMP (11756126_x_at) / Fold change /veh HAMP (11756126_x_at) / RFU RNFT2 (11725882_a_at) / Fold change /veh RNFT2 (11725882_a_at) / RFU NR4A2 (11747474_a_at) / Fold change /veh NR4A2 (11747474_a_at) / RFU ABCC12 (11746883_a_at) / Fold change /veh ABCC12 (11746883_a_at) / RFU TMEM136 (11760407_x_at) / Fold change /veh TMEM136 (11760407_x_at) / RFU CLDN22 /// WWC2 (11732394_at) / Fold change /veh CLDN22 /// WWC2 (11732394_at) / RFU HLA-DPB1 (11760878_x_at) / Fold change /veh HLA-DPB1 (11760878_x_at) / RFU SPINT1 (11716480_a_at) / Fold change /veh SPINT1 (11716480_a_at) / RFU GAP43 (11754022_s_at) / Fold change /veh GAP43 (11754022_s_at) / RFU A4GNT (11735810_at) / Fold change /veh A4GNT (11735810_at) / RFU PRB3 (11715151_x_at) / Fold change /veh PRB3 (11715151_x_at) / RFU TUBB4B (11761932_at) / Fold change /veh TUBB4B (11761932_at) / RFU CAPN14 (11732068_a_at) / Fold change /veh CAPN14 (11732068_a_at) / RFU TMCC2 (11721928_a_at) / Fold change /veh TMCC2 (11721928_a_at) / RFU IRGQ (11745062_a_at) / Fold change /veh IRGQ (11745062_a_at) / RFU FAM174B (11720279_a_at) / Fold change /veh FAM174B (11720279_a_at) / RFU TMPRSS4 (11748680_a_at) / Fold change /veh TMPRSS4 (11748680_a_at) / RFU FAM212B (11763350_a_at) / Fold change /veh FAM212B (11763350_a_at) / RFU PLEKHG5 (11743358_a_at) / Fold change /veh PLEKHG5 (11743358_a_at) / RFU ZSCAN30 (11745921_a_at) / Fold change /veh ZSCAN30 (11745921_a_at) / RFU CMKLR1 (11741424_a_at) / Fold change /veh CMKLR1 (11741424_a_at) / RFU LOC101060620 /// MAPK8IP1 (11723275_at) / Fold change /veh LOC101060620 /// MAPK8IP1 (11723275_at) / RFU SPTSSB (11747773_x_at) / Fold change /veh SPTSSB (11747773_x_at) / RFU PRSS12 (11739890_at) / Fold change /veh PRSS12 (11739890_at) / RFU BIN1 (11741810_x_at) / Fold change /veh BIN1 (11741810_x_at) / RFU WNT11 (11732464_a_at) / Fold change /veh WNT11 (11732464_a_at) / RFU C10orf10 (11716521_a_at) / Fold change /veh C10orf10 (11716521_a_at) / RFU C5orf56 (11738089_at) / Fold change /veh C5orf56 (11738089_at) / RFU CYB561 (11721691_x_at) / Fold change /veh CYB561 (11721691_x_at) / RFU ANKRD19P (11752326_a_at) / Fold change /veh ANKRD19P (11752326_a_at) / RFU OR2T12 /// OR2T33 /// OR2T8 (11738714_s_at) / Fold change /veh OR2T12 /// OR2T33 /// OR2T8 (11738714_s_at) / RFU VCAN (11748164_a_at) / Fold change /veh VCAN (11748164_a_at) / RFU JSRP1 (11732532_at) / Fold change /veh JSRP1 (11732532_at) / RFU KRTAP10-11 (11738290_x_at) / Fold change /veh KRTAP10-11 (11738290_x_at) / RFU MYO3A (11730013_a_at) / Fold change /veh MYO3A (11730013_a_at) / RFU EBF3 (11725865_a_at) / Fold change /veh EBF3 (11725865_a_at) / RFU CAMK2N1 (11719241_x_at) / Fold change /veh CAMK2N1 (11719241_x_at) / RFU C5orf56 (11738088_a_at) / Fold change /veh C5orf56 (11738088_a_at) / RFU OLFML3 (11715873_a_at) / Fold change /veh OLFML3 (11715873_a_at) / RFU LOC100653217 /// NTM (11731650_a_at) / Fold change /veh LOC100653217 /// NTM (11731650_a_at) / RFU MAPK11 (11762145_a_at) / Fold change /veh MAPK11 (11762145_a_at) / RFU FIZ1 (11724087_x_at) / Fold change /veh FIZ1 (11724087_x_at) / RFU OASL (11726364_x_at) / Fold change /veh OASL (11726364_x_at) / RFU SOX15 (11748057_x_at) / Fold change /veh SOX15 (11748057_x_at) / RFU CD79A (11719716_a_at) / Fold change /veh CD79A (11719716_a_at) / RFU HIST1H1D (11736915_at) / Fold change /veh HIST1H1D (11736915_at) / RFU CASKIN2 (11723855_a_at) / Fold change /veh CASKIN2 (11723855_a_at) / RFU LOC730098 (11760151_x_at) / Fold change /veh LOC730098 (11760151_x_at) / RFU OR4N2 (11742367_at) / Fold change /veh OR4N2 (11742367_at) / RFU PRRT2 (11749266_a_at) / Fold change /veh PRRT2 (11749266_a_at) / RFU SNX32 (11753110_a_at) / Fold change /veh SNX32 (11753110_a_at) / RFU CDHR5 (11726645_a_at) / Fold change /veh CDHR5 (11726645_a_at) / RFU RCAN1 (11760418_a_at) / Fold change /veh RCAN1 (11760418_a_at) / RFU FAM167A (11723789_a_at) / Fold change /veh FAM167A (11723789_a_at) / RFU FAM26E (11764081_at) / Fold change /veh FAM26E (11764081_at) / RFU ISYNA1 (11749810_s_at) / Fold change /veh ISYNA1 (11749810_s_at) / RFU ACY1 (11761880_at) / Fold change /veh ACY1 (11761880_at) / RFU 11764098_at / Fold change /veh 11764098_at / RFU SAMD14 (11745864_x_at) / Fold change /veh SAMD14 (11745864_x_at) / RFU NPB (11741838_a_at) / Fold change /veh NPB (11741838_a_at) / RFU TMPRSS6 (11731388_a_at) / Fold change /veh TMPRSS6 (11731388_a_at) / RFU KRTAP10-2 (11738614_at) / Fold change /veh KRTAP10-2 (11738614_at) / RFU ARHGAP8 /// PRR5-ARHGAP8 (11727945_x_at) / Fold change /veh ARHGAP8 /// PRR5-ARHGAP8 (11727945_x_at) / RFU KRTAP5-7 /// NADSYN1 (11734609_at) / Fold change /veh KRTAP5-7 /// NADSYN1 (11734609_at) / RFU RASL12 (11751679_a_at) / Fold change /veh RASL12 (11751679_a_at) / RFU CDKN2B (11736163_a_at) / Fold change /veh CDKN2B (11736163_a_at) / RFU PRF1 (11729649_at) / Fold change /veh PRF1 (11729649_at) / RFU, ZNF638 /// ZNF638-IT1 / Fold change vs veh, ZNF638 /// ZNF638-IT1 / RFU, PANK3 / Fold change vs veh, PANK3 / RFU, SH3YL1 / Fold change vs veh, SH3YL1 / RFU, ZEB2 / Fold change vs veh, ZEB2 / RFU, NRIP1 / Fold change vs veh, NRIP1 / RFU, PTTG1IP / Fold change vs veh, PTTG1IP / RFU, CAPN2 / Fold change vs veh, CAPN2 / RFU, MED14 / Fold change vs veh, MED14 / RFU, SNORA58 / Fold change vs veh, SNORA58 / RFU, C1orf63 / Fold change vs veh, C1orf63 / RFU, LRRFIP1 / Fold change vs veh, LRRFIP1 / RFU, NDUFAF7 / Fold change vs veh, NDUFAF7 / RFU, SLC12A2 / Fold change vs veh, SLC12A2 / RFU, IBTK / Fold change vs veh, IBTK / RFU, ESF1 / Fold change vs veh, ESF1 / Fold change vs veh, TMEM50B / RFU, TAOK1 / Fold change vs veh, TAOK1 / RFU, ACBD3 / Fold change vs veh, ACBD3 / RFU, TMA16 / Fold change vs veh, TMA16 / RFU, RWDD3 / Fold change vs veh, RWDD3 / RFU, BCAT1 / Fold change vs veh, BCAT1 / RFU, EDEM3 / Fold change vs veh, EDEM3 / RFU, TMEM33 / Fold change vs veh, TMEM33 / RFU, WDR75 / Fold change vs veh, WDR75 / RFU, AHCTF1 / Fold change vs veh, AHCTF1 / RFU, TFRC / Fold change vs veh, TFRC / RFU, ZDHHC17 / Fold change vs veh, ZDHHC17 / RFU, NOM1 / Fold change vs veh, NOM1 / RFU, ARL8B / Fold change vs veh, ARL8B / RFU, ZBTB11 / Fold change vs veh, ZBTB11 / RFU, TAMM41 / Fold change vs veh, TAMM41 / RFU, KIAA1704 /// LOC100996395 / Fold change vs veh, KIAA1704 /// LOC100996395 / RFU, ING1 / Fold change vs veh, ING1 / RFU, TRMT61B / Fold change vs veh, TRMT61B / RFU, FUBP3 / Fold change vs veh, FUBP3 / RFU, TP53 / Fold change vs veh, TP53 / RFU, TNKS2 / Fold change vs veh, TNKS2 / RFU, ZFP14 / Fold change vs veh, ZFP14 / RFU, ACTR2 / Fold change vs veh, ACTR2 / RFU, PPP3R1 / Fold change vs veh, PPP3R1 / RFU, PIK3R1 / Fold change vs veh, PIK3R1 / RFU, HNRNPA1 / Fold change vs veh, HNRNPA1 / RFU, RNF170 / Fold change vs veh, RNF170 / RFU, ZNF28 / Fold change vs veh, ZNF28 / RFU, RNGTT / Fold change vs veh, RNGTT / RFU, OGT / Fold change vs veh, OGT / RFU, BRD1 / Fold change vs veh, BRD1 / RFU, MARS / Fold change vs veh, MARS / RFU, ZNF655 / Fold change vs veh, ZNF655 / RFU, FAHD1 / Fold change vs veh, FAHD1 / RFU, BDP1 / Fold change vs veh, BDP1 / RFU, LRRCC1 / Fold change vs veh, LRRCC1 / RFU, ARID1A / Fold change vs veh, ARID1A / RFU, ZNF146 / Fold change vs veh, ZNF146 / RFU, ZNF330 / Fold change vs veh, ZNF330 / RFU, GPN3 / Fold change vs veh, GPN3 / RFU, C9orf123 / Fold change vs veh, C9orf123 / RFU, N4BP2L2 / Fold change vs veh, N4BP2L2 / RFU, ARFIP1 / Fold change vs veh, ARFIP1 / RFU, FAM179B / Fold change vs veh, FAM179B / RFU, BCL10 / Fold change vs veh, BCL10 / RFU, UHRF1BP1L / Fold change vs veh, UHRF1BP1L / RFU, BET1 / Fold change vs veh, BET1 / RFU, CNOT2 / Fold change vs veh, CNOT2 / RFU, ZNF268 / Fold change vs veh, ZNF268 / Fold change vs veh, ZNF507 / RFU, DGCR2 / Fold change vs veh, DGCR2 / RFU, WDSUB1 / Fold change vs veh, WDSUB1 / Fold change vs veh, HSP90B1 /// MIR3652 / RFU, ADSS / Fold change vs veh, ADSS / RFU, GK / Fold change vs veh, GK / RFU, ZNF148 / Fold change vs veh, ZNF148 / RFU, TAF9 / Fold change vs veh, TAF9 / RFU, SLC1A5 / Fold change vs veh, SLC1A5 / RFU, SLMO2 / Fold change vs veh, SLMO2 / RFU, ABCC4 / Fold change vs veh, ABCC4 / RFU, LOC101060439 /// RAP1B / Fold change vs veh, LOC101060439 /// RAP1B / RFU, RFX7 / Fold change vs veh, RFX7 / RFU, GTPBP10 / Fold change vs veh, GTPBP10 / RFU, CNEP1R1 / Fold change vs veh, CNEP1R1 / RFU, BIVM-ERCC5 /// ERCC5 / Fold change vs veh, BIVM-ERCC5 /// ERCC5 / RFU, ILF3 / Fold change vs veh, ILF3 / RFU 11762660_at / Fold change /veh 11762660_at / RFU VCAN (11757783_s_at) / Fold change /veh VCAN (11757783_s_at) / RFU DDX43 (11728927_at) / Fold change /veh DDX43 (11728927_at) / RFU KRT8 (11758188_x_at) / Fold change /veh KRT8 (11758188_x_at) / RFU NKD1 (11759106_at) / Fold change /veh NKD1 (11759106_at) / RFU SRD5A1 (11742802_a_at) / Fold change /veh SRD5A1 (11742802_a_at) / RFU TPSAB1 /// TPSB2 (11721975_s_at) / Fold change /veh TPSAB1 /// TPSB2 (11721975_s_at) / RFU GSTM3 (11746129_a_at) / Fold change /veh GSTM3 (11746129_a_at) / RFU IL23R (11737362_x_at) / Fold change /veh IL23R (11737362_x_at) / RFU TMEM51 (11727254_a_at) / Fold change /veh TMEM51 (11727254_a_at) / RFU PIWIL2 (11732686_x_at) / Fold change /veh PIWIL2 (11732686_x_at) / RFU ORM1 (11744905_x_at) / Fold change /veh ORM1 (11744905_x_at) / RFU CCDC152 (11743942_at) / Fold change /veh CCDC152 (11743942_at) / RFU ECM1 (11717891_a_at) / Fold change /veh ECM1 (11717891_a_at) / RFU IL23R (11748794_a_at) / Fold change /veh IL23R (11748794_a_at) / RFU TNFAIP8L3 (11732012_x_at) / Fold change /veh TNFAIP8L3 (11732012_x_at) / RFU MBOAT4 (11741988_at) / Fold change /veh MBOAT4 (11741988_at) / RFU 11764193_at / Fold change /veh 11764193_at / RFU TMEM53 (11763286_at) / Fold change /veh TMEM53 (11763286_at) / RFU MAGEB2 (11727129_at) / Fold change /veh MAGEB2 (11727129_at) / RFU TMEM200A (11744735_a_at) / Fold change /veh TMEM200A (11744735_a_at) / RFU CCDC152 (11751479_a_at) / Fold change /veh CCDC152 (11751479_a_at) / RFU FAM211A (11726209_a_at) / Fold change /veh FAM211A (11726209_a_at) / RFU RGS16 (11746705_a_at) / Fold change /veh RGS16 (11746705_a_at) / RFU VCAN (11755009_s_at) / Fold change /veh VCAN (11755009_s_at) / RFU RHOB (11743442_s_at) / Fold change /veh RHOB (11743442_s_at) / RFU RGS16 (11720943_a_at) / Fold change /veh RGS16 (11720943_a_at) / RFU RGS16 (11720944_at) / Fold change /veh RGS16 (11720944_at) / RFU, VPS4B / Fold change vs veh, VPS4B / RFU, CREB1 / Fold change vs veh, CREB1 / RFU, DNAJC13 / Fold change vs veh, DNAJC13 / RFU, GNAQ / Fold change vs veh, GNAQ / RFU, CDK5R1 / Fold change vs veh, CDK5R1 / RFU, ZRANB3 / Fold change vs veh, ZRANB3 / RFU, CUL4A / Fold change vs veh, CUL4A / RFU, CCNY / Fold change vs veh, CCNY / RFU, UFL1 / Fold change vs veh, UFL1 / RFU, COG3 / Fold change vs veh, COG3 / RFU, DIAPH2 / Fold change vs veh, DIAPH2 / RFU, SKA2 / Fold change vs veh, SKA2 / RFU, AFF3 / Fold change vs veh, AFF3 / RFU, LMF1 / Fold change vs veh, LMF1 / RFU, IPO11 / Fold change vs veh, IPO11 / RFU, DFFB / Fold change vs veh, DFFB / RFU, FOXP1 / Fold change vs veh, FOXP1 / RFU, CARD8 / Fold change vs veh, CARD8 / RFU, STRN3 / Fold change vs veh, STRN3 / RFU, ADK / Fold change vs veh, ADK / RFU, RASSF2 / Fold change vs veh, RASSF2 / RFU, WIPF1 / Fold change vs veh, WIPF1 / RFU, LARP1B / Fold change vs veh, LARP1B / RFU, RASA1 / Fold change vs veh, RASA1 / RFU, RB1 / Fold change vs veh, RB1 / RFU, PPFIA1 / Fold change vs veh, PPFIA1 / RFU, MAT2A / Fold change vs veh, MAT2A / RFU, CCT5 / Fold change vs veh, CCT5 / RFU, WDR92 / Fold change vs veh, WDR92 / RFU, CUX1 / Fold change vs veh, CUX1 / RFU, TTC7A / Fold change vs veh, TTC7A / RFU, TMEM135 / Fold change vs veh, TMEM135 / RFU, DEPTOR / Fold change vs veh, DEPTOR / RFU, CPM / Fold change vs veh, CPM / RFU, DNAJB6 / Fold change vs veh, DNAJB6 / RFU, CACNA2D3 / Fold change vs veh, CACNA2D3 / RFU, DTX4 / Fold change vs veh, DTX4 / RFU, TFCP2 / Fold change vs veh, TFCP2 / RFU, GMCL1 /// GMCL1P1 / Fold change vs veh, GMCL1 /// GMCL1P1 / RFU, AEBP2 / Fold change vs veh, AEBP2 / RFU, SNHG1 /// SNORD22 /// SNORD25 /// SNORD26 /// SNORD27 /// SNORD28 /// SNORD29 /// SNORD31 / Fold change vs veh, SNHG1 /// SNORD22 /// SNORD25 /// SNORD26 /// SNORD27 /// SNORD28 /// SNORD29 /// SNORD31 / Fold change (Aza/veh), C12orf56 (ProbeSet 11735607_a_at) / Fold change (ACY-1035/veh), C12orf56 (ProbeSet 11735607_a_at) / Fold change (Aza/veh), FGFR1OP (ProbeSet 11751329_s_at) / Fold change (ACY-1035/veh), FGFR1OP (ProbeSet 11751329_s_at) / Fold change (Aza/veh), VPS36 (ProbeSet 11739960_a_at) / Fold change (ACY-1035/veh), VPS36 (ProbeSet 11739960_a_at) / RFU SYPL1 (11715823_x_at) / Fold change /veh SYPL1 (11715823_x_at) / RFU IGFBP7 (11715501_s_at) / Fold change /veh IGFBP7 (11715501_s_at) / RFU REEP3 (11722064_at) / Fold change /veh REEP3 (11722064_at) / RFU IGLL1 (11728026_x_at) / Fold change /veh IGLL1 (11728026_x_at): dose or concentration left out as unconfirmed
Details: MV-4-11 cells, 48 hours

## Nc1ccc(-c2cccs2)cc1NC(=O)c1ccc2c(c1)cc(C1CC1)n2CCN1CCOCC1 [ACY-1035]
  RFU ZSCAN30 (11745921_a_at): 7.88 RFU
